Measured values: article PMC10135057, “Molecular Modification of Kex2 P1’ Site Enhances Expression and Druggability of Fungal Defensin” (Antibiotics, 2023)
Several values for one entry are separate records, joined by “and”; a condition that tells them apart may be missing. Identical values can stand only once.

Assays:
[1] = tested on: S. aureus ATCC 43300; experiment: Stability in mouse serum (MIC after treatment); format: in vitro ADME, Staphylococcus aureus; details: mouse serum (25%), 1–4 h; MIC vs S. aureus ATCC 43300; triplicate
Protocol: (§1) The tolerance of FNZ to temperature and pH was evaluated. The stability of FNZ in simulated gastric fluid, artificial intestinal fluid and mouse serum was carried out as previously described. […] All assays were conducted in triplicate.

[2] = tested on: Staphylococcus aureus ATCC 43300; experiment: microbe, parasite or virus in culture; format: cell-based; details: Staphylococcus aureus, ATCC43300
Protocol: (§2) The minimal inhibitory concentrations (MICs) assay was performed according to the CLSI procedures with the final peptide concentrations of 256, 128, 64, 32, 16, 8, 4, 2, 1, and 0.5 μg/mL, respectively. All tests were conducted in triplicate.

[3] = tested on: Escherichia coli ATCC 25922; experiment: microbe, parasite or virus in culture; format: cell-based; details: Escherichia coli, ATCC25922
Protocol: as §2

[4] = tested on: S. aureus ATCC 43300; experiment: Stability in simulated gastric fluid (MIC after treatment); format: in vitro ADME, Staphylococcus aureus; details: 1 h, MIC vs S. aureus ATCC 43300, triplicate
Protocol: as §1

[5] = tested on: S. aureus ATCC 43300; experiment: microbe, parasite or virus in culture; format: cell-based, Staphylococcus aureus
Protocol: The effects of combination were evaluated by calculating the FICI. FICI ≤ 0.5 was defined as synergy, 0.5 < FICI ≤ 1 was defined as additivity, 1 < FICI ≤ 4 was defined as indifference, and FICI > 4 was defined as antagonism.

[6] = tested on: Pseudomonas aeruginosa CICC 20625; experiment: Minimal inhibitory concentration (MIC); format: cell-based; details: CICC20625, CLSI procedure, triplicate
Protocol: as §2

[7] = tested on: Salmonella enterica ATCC 13076; experiment: Minimal inhibitory concentration (MIC); format: cell-based; details: ATCC13076, CLSI procedure, triplicate
Protocol: as §2

[8] = tested on: S. aureus ATCC 43300; experiment: Bactericidal kinetics (time-killing curves); format: cell-based, Staphylococcus aureus; details: 2× MIC, within 2 h; S. aureus ATCC 43300, 10^6 CFU/mL
Protocol: The S. aureus ATCC 43300 in logarithmic growth stage was diluted to a final concentration of 10^6 CFU/mL. […] Samples were taken at 0, 0.5, 1, 2, 4, 6, 8, 10, 20, and 24 h, serially diluted, and visible colonies were counted on MHA plates.

[9] = tested on: S. aureus ATCC 43300; experiment: Post-antibiotic effect (PAE); format: cell-based, Staphylococcus aureus; details: 2× MIC, 2 h exposure, 10^8 CFU/mL S. aureus ATCC 43300, 1000-fold dilution
Text: After the exposed time, the bacteria suspension was reconstructed by dilution to 1000 times with MHB medium to remove the influence of peptides and antibiotics. Samples were taken every hour, and then coated on MHA plate after gradient dilution. The calculation formula was from previous studies.

[10] = tested on: S. aureus CVCC 546; experiment: microbe, parasite or virus in culture; format: cell-based, Staphylococcus aureus; details: Staphylococcus aureus, CVCC546
Protocol: as §2

[11] = tested on: S. aureus ATCC 25923; experiment: microbe, parasite or virus in culture; format: cell-based, Staphylococcus aureus; details: Staphylococcus aureus, ATCC25923
Protocol: as §2

[12] = tested on: S. aureus E48; experiment: microbe, parasite or virus in culture; format: cell-based, Staphylococcus aureus; details: Staphylococcus aureus, E48
Protocol: as §2

[13] = tested on: S. aureus ATCC 43300; experiment: pH stability (MIC after pH treatment); format: physicochemical, Staphylococcus aureus; details: MIC vs S. aureus ATCC 43300, triplicate
Protocol: as §1

[14] = tested on: S. epidermidis ATCC 12228; experiment: microbe, parasite or virus in culture; format: cell-based, Staphylococcus epidermidis; details: Staphylococcus epidermidis, ATCC12228
Protocol: as §2

[15] = tested on: S. aureus ATCC 43300; experiment: Thermal stability (MIC after heat treatment); format: physicochemical, Staphylococcus aureus; details: MIC vs S. aureus ATCC 43300, triplicate
Protocol: as §1

[16] = tested on: S. aureus ATCC 43300; experiment: Stability in artificial intestinal fluid (MIC after treatment); format: in vitro ADME, Staphylococcus aureus; details: 10 min, MIC vs S. aureus ATCC 43300, triplicate
Protocol: as §1

[17] = tested on: S. aureus ATCC 43300; experiment: Salts stability (MIC after incubation with Na+ or Mg2+); format: cell-based, Staphylococcus aureus; details: for MIC: read-out: MIC after treatment
[18] = 50 mM Mg2+, 37 °C, 1 h, MIC vs S. aureus ATCC 43300, triplicate
[19] = 100 mM Mg2+, 37 °C, 1 h, MIC vs S. aureus ATCC 43300, triplicate
[20] = 100 mM Na+, 37 °C, 1 h, MIC vs S. aureus ATCC 43300, triplicate
[21] = 150 mM Mg2+, 37 °C, 1 h, MIC vs S. aureus ATCC 43300, triplicate
[22] = 150 mM Na+, 37 °C, 1 h, MIC vs S. aureus ATCC 43300, triplicate
[23] = 300 mM Mg2+, 37 °C, 1 h, MIC vs S. aureus ATCC 43300, triplicate
[24] = 300 mM Na+, 37 °C, 1 h, MIC vs S. aureus ATCC 43300, triplicate
[25] = 500 mM Mg2+, 37 °C, 1 h, MIC vs S. aureus ATCC 43300, triplicate
[26] = 500 mM Na+, 37 °C, 1 h, MIC vs S. aureus ATCC 43300, triplicate

With `CN[C@H](CC(C)C)C(=O)N[C@H]1C(=O)N[C@@H](CC(N)=O)C(=O)N[C@H]2C(=O)N[C@H]3C(=O)N[C@H](C(=O)N[C@H](C(=O)O)c4cc(O)cc(O)c4-c4cc3ccc4O)[C@H](O)c3ccc(c(Cl)c3)Oc3cc2cc(c3O[C@@H]2O[C@H](CO)[C@@H](O)[C@H](O)[C@H]2O[C@H]2C[C@](C)(N)[C@H](O)[C@H](C)O2)Oc2ccc(cc2Cl)[C@H]1O` [Vancomycin, vancomycin] the MIC after treatment [1] was 1 μg/mL and 0.67 μM, the MIC [2] was 1 µg/mL and 0.67 µM and the MIC [3] was 128 µg/mL and 86 µM. For the same compound, the MIC after treatment [4] was 1 μg/mL and 0.67 μM, the MIC ([5]; Staphylococcus aureus, ATCC43300, 16 h, read-out: MICa (MIC of drug alone)) was 1 µg/mL and the “Combination effect with FNZ (in words)” value ([5]; checkerboard, S. aureus ATCC 43300) was “synergistic effect”. For the same compound, the FIC ([5]; combination FNZ + Van, S. aureus ATCC 43300) was 0.125, the “MICc (MIC of drug used in combination)” value ([5]; combination FNZ + Van, S. aureus ATCC 43300, checkerboard, 37 °C, 16 h) was 0.125 µg/mL and the “FICI (fractional inhibitory concentration index)” value ([5]; combination of FNZ with the named antibiotic, S. aureus ATCC 43300, ≤0.5 synergy, 0.5-1 additivity, 1-4 indifference, >4 antagonism) was 0.25 and < 0.5. The MIC [6] was > 128 µg/mL and > 86 µM, the MIC [7] was > 128 µg/mL and > 86 µM and the “Decrease of bacterial counts (log10 CFU/mL)” value [8] was 0.216 log10 CFU/mL. For the same compound, the PAE [9] was 1.3 h, the MIC [10] was 1 µg/mL and 0.67 µM and the MIC [11] was 4 µg/mL and 2.69 µM. For the same compound, the MIC [12] was 1 µg/mL and 0.67 µM, the MIC after treatment ([13]; pH 2) was 1 μg/mL and 0.67 μM and the MIC after treatment ([13]; pH 4) was 1 μg/mL and 0.67 μM. For the same compound, the MIC after treatment ([13]; pH 6) was 1 μg/mL and 0.67 μM, the MIC after treatment ([13]; pH 8) was 1 μg/mL and 0.67 μM and the MIC after treatment ([13]; pH 10) was 1 μg/mL and 0.67 μM. For the same compound, the MIC [14] was 1 µg/mL and 0.67 µM, the MIC after treatment ([15]; 20 °C for 1 h) was 1 μg/mL and 0.67 μM and the MIC after treatment ([15]; 40 °C for 1 h) was 1 μg/mL and 0.67 μM. For the same compound, the MIC after treatment ([15]; 60 °C for 1 h) was 1 μg/mL and 0.67 μM, the MIC after treatment ([15]; 80 °C for 1 h) was 1 μg/mL and 0.67 μM and the MIC after treatment ([15]; 100 °C for 1 h) was 1 μg/mL and 0.67 μM. For the same compound, the MIC after treatment [16] was 1 μg/mL and 0.67 μM, the MIC after treatment [17, 18] was 1 µg/mL and the MIC [17, 18] was 0.67 µM. For the same compound, the MIC after treatment [17, 19] was 1 µg/mL, the MIC [17, 19] was 0.67 µM and the MIC after treatment [17, 20] was 1 µg/mL. For the same compound, the MIC [17, 20] was 0.67 µM, the MIC after treatment [17, 21] was 1 µg/mL and the MIC [17, 21] was 0.67 µM. The MIC after treatment [17, 22] was 1 µg/mL, the MIC [17, 22] was 0.67 µM and the MIC after treatment [17, 23] was 1 µg/mL. It also gave an MIC [17, 23] of 0.67 µM, an MIC after treatment [17, 24] of 1 µg/mL and an MIC [17, 24] of 0.67 µM. The MIC after treatment [17, 25] was 1 µg/mL, the MIC [17, 25] was 0.67 µM and the MIC after treatment [17, 26] was 1 µg/mL. For the same compound, the MIC [17, 26] was 0.67 µM and the MIC ([17]; Staphylococcus aureus, ATCC43300, 1 h) was 1 µg/mL and 0.67 µM.
